Source: patent US11116722B2, “Antifungal dry powders” (priority 2016, dated 2021)

Tested on: Calu-3 cell line

- Rate of Diffusion (human, pH 7.4): 1.81 cm/s
SMILES: CCC(C)n1ncn(-c2ccc(N3CCN(c4ccc(OCC5COC(Cn6cncn6)(c6ccc(Cl)cc6Cl)O5)cc4)CC3)cc2)c1=O (centres unmarked) [Pure ITZ, Itraconazole]
- dissolution and permeability kinetics / rate of diffusion (in words): slower dissolution and permeability kinetics than the other formulations
